From ChEMBL document CHEMBL3217729, “Sangamides, a new class of cyclophilin-inhibiting host-targeted antivirals for treatment of HCV infection” (Medchemcomm, 2012)
≈ marks a conversion by molar mass, not a printed value.

Assays:
[1] = Cytostatic activity against human Huh5-2 cells assessed as decrease in cell proliferation after 3 days by MTS method; format: ADME, cell-based, Huh-5-2
[2] = Selectivity index, ratio of CC50 for human Huh5-2 cells to EC50 for Hepatitis C virus genotype 1b I389luc-ubi-neo/NS3-3'/5.1 subgenomic replicon infected in human Huh5-2 cells; format: toxicity, cell-based, Huh-5-2; conditions: read-out: Ratio CC50/EC50
[3] = Half life in human hepatocytes at 1 uM by LC-MS/MS analysis; format: ADME, cell-based, Hepatocyte
[4] = Solubility of the compound in phosphate buffered saline at pH 7.4 after 4 hrs by LC-MS/MS analysis
[5] = system: Hepatitis C virus; assay: Antiviral activity against Hepatitis C virus genotype 1b I389luc-ubi-neo/NS3-3'/5.1 subgenomic replicon infected in human Huh5-2 cells after 4 days by luciferase assay; format: functional, cell-based, Hepacivirus hominis; conditions: Huh-5-2, 96 h
[6] = Half life in human liver microsomes at 1 uM by LC-MS/MS analysis; format: ADME
[7] = target: Peptidyl-prolyl cis-trans isomerase A (Homo sapiens, UniProt P62937); assay: Inhibition of recombinant GST-tagged CypA (unknown origin)/HCV Con1 NS5A-His interaction after 16 hrs by ELISA
Sequence of Peptidyl-prolyl cis-trans isomerase A (P62937 whole entry): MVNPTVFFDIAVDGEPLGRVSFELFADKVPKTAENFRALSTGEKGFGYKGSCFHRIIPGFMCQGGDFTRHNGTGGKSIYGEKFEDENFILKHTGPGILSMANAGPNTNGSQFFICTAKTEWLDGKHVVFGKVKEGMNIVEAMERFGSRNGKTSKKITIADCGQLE

[8] = in vitro; conditions: mouse, liver microsomes
Description: Half life in mouse liver microsomes at 1 uM by LC-MS/MS analysis

[9] = system: Hepatitis C virus; assay: Antiviral activity against Hepatitis C virus genotype 1b Con1 infected in human Huh7 cells assessed as decrease in subgenomic RNA level after 72 hrs by RT-PCR analysis; format: functional, cell-based, Hepacivirus hominis; conditions: genotype 1b Con1, Huh-7, 72 h
[10] = system: Hepatitis C virus; assay: Antiviral activity against Hepatitis C virus genotype 2a JFH-1 infected in human Huh7 cells assessed as decrease in subgenomic RNA level after 72 hrs by RT-PCR analysis; format: functional, cell-based, Hepacivirus hominis; conditions: genotype 2a JFH-1, Huh-7, 72 h
[11] = system: Hepatitis C virus; assay: Antiviral activity against Hepatitis C virus genotype 1a H77 infected in human Huh7 cells assessed as decrease in subgenomic RNA level after 72 hrs by RT-PCR analysis; format: functional, cell-based, Hepacivirus hominis; conditions: genotype 1a H77, Huh-7, 72 h
[12] = system: PBMC; assay: Immunosuppressive activity in human PBMC isolated from two individuals assessed as inhibition of proliferation using [3H]thymidine by mixed lymphocyte reaction assay; format: cell-based

Row | SMILES | CC50 at 72 h [1] | selectivity ratio [2] | half-life at 1 µM [3] | solubility at 4 h [4] | EC50 [5] | EC90 [5] | half-life at 1 µM [6] | IC50 [7] | half-life at 1 µM [8] | EC50 [9] | EC50 [10] | EC50 [11] | IC50 [12]
1 | CNC(=O)/C=C/C=C(\C)[C@@H]1C/C=C/C=C/[C@H](O)[C@H](C)[C@@H](O)[C@@H](CCC(C)=O)C(=O)N[C@@H](C(C)C)C(=O)N[C@@H](Cc2cccc(O)c2)C(=O)N2CCCC(N2)C(=O)O1 (stereo in doubt) | > 100000 nM | > 13 | 192 min | > 100 µM | 8000 nM | 60200 nM | 37.2 min | 500 nM | 22.5 min | – | – | – | –
2 | CCC[C@H](NC(=O)[C@@H]1[C@H]2CCC[C@H]2CN1C(=O)[C@@H](NC(=O)[C@@H](NC(=O)c1cnccn1)C1CCCCC1)C(C)(C)C)C(=O)C(=O)NC1CC1 | > 74000 nM | > 315 | – | – | 235 nM | 838 nM | – | – | – | 720 nM | – | – | –
3 | CC(=O)CC[C@H]1C(=O)N[C@@H](C(C)C)C(=O)N[C@@H](Cc2cccc(O)c2)C(=O)N2CCCC(N2)C(=O)O[C@H](/C(C)=C/C=C/C(=O)N2CCOCC2)C/C=C/C=C/[C@H](O)[C@H](C)[C@H]1O (stereo not given in full) | – | > 72 | > 240 min | > 100 µM | 1400 nM | 7400 nM | 50.3 min | 330 nM | 18 min | – | – | – | –
4 | C/C=C/C[C@@H](C)[C@@H](O)[C@H]1C(=O)N[C@@H](CC)C(=O)N(C)CC(=O)N(C)[C@@H](CC(C)C)C(=O)N[C@@H](C(C)C)C(=O)N(C)[C@@H](CC(C)C)C(=O)N[C@@H](C)C(=O)N[C@H](C)C(=O)N(C)[C@@H](CC(C)C)C(=O)N(C)[C@@H](CC(C)C)C(=O)N(C)[C@@H](C(C)C)C(=O)N1C [CYCLOSPORINE] | – | – | – | – | 306 nM | 1000 nM | – | – | – | 137 nM | 455 nM | 198 nM | –
5 | CC(=O)CC[C@H]1C(=O)N[C@@H](C(C)C)C(=O)N[C@@H](Cc2cccc(O)c2)C(=O)N2CCCC(N2)C(=O)O[C@H](/C(C)=C/C=C/C(=O)Nc2ccncc2)C/C=C/C=C/[C@H](O)[C@H](C)[C@H]1O (stereo not given in full) | > 100000 nM | > 12.4 | > 240 min | 15 µM (≈ 12.9 µg/mL) | 8060 nM | 31900 nM | 32.2 min | 550 nM | 15.2 min | – | – | – | –
6 | CC(=O)CC[C@H]1C(=O)N[C@@H](C(C)C)C(=O)N[C@@H](Cc2cccc(O)c2)C(=O)N2CCCC(N2)C(=O)O[C@H](/C(C)=C/C=C/C(=O)NC2CCCCC2)C/C=C/C=C/[C@H](O)[C@H](C)[C@H]1O (stereo in doubt) | > 100000 nM | > 298 | > 240 min | 29 µM (≈ 25 µg/mL) | 336 nM | 4230 nM | 6.5 min | 450 nM | 2.7 min | – | – | – | –
7 | C=CCNC(=O)/C=C/C=C(\C)[C@@H]1C/C=C/C=C/[C@H](O)[C@H](C)[C@@H](O)[C@@H](CCC(C)=O)C(=O)N[C@@H](C(C)C)C(=O)N[C@@H](Cc2cccc(O)c2)C(=O)N2CCCC(N2)C(=O)O1 (stereo in doubt) | 48000 nM | 30 | 139 min | – | 1600 nM | 8500 nM | 23.9 min | 360 nM | 10.6 min | – | – | – | –
8 | CC(=O)CC[C@H]1C(=O)N[C@@H](C(C)C)C(=O)N[C@@H](Cc2cccc(O)c2)C(=O)N2CCCC(N2)C(=O)O[C@H](/C(C)=C/C=C/C(=O)Nc2cccnc2)C/C=C/C=C/[C@H](O)[C@H](C)[C@H]1O (stereo in doubt) | > 100000 nM | > 40 | 116 min | 18 µM (≈ 15.4 µg/mL) | 2480 nM | 5410 nM | 7.5 min | 460 nM | 3.3 min | – | – | – | –
9 | CC(=O)CC[C@H]1C(=O)N[C@@H](C(C)C)C(=O)N[C@@H](Cc2cccc(O)c2)C(=O)N2CCCC(N2)C(=O)O[C@H](/C(C)=C/C=C/C(=O)N(C)C2CCCCC2)C/C=C/C=C/[C@H](O)[C@H](C)[C@H]1O (stereo not given in full) | 66000 nM | 446 | > 240 min | 48 µM (≈ 42.1 µg/mL) | 148 nM | 1900 nM | 3.3 min | 420 nM | 1.9 min | – | – | – | –
10 | CC(=O)CC[C@H]1C(=O)N[C@@H](C(C)C)C(=O)N[C@@H](Cc2cccc(O)c2)C(=O)N2CCCC(N2)C(=O)O[C@H](/C(C)=C/C=C/C(=O)NC(C)C)C/C=C/C=C/[C@H](O)[C@H](C)[C@H]1O (stereo in doubt) | > 100000 nM | > 179 | 59 min | 12 µM (≈ 9.86 µg/mL) | 560 nM | 4600 nM | 16.9 min | 380 nM | 6.4 min | – | – | – | –
11 | CC(=O)CC[C@H]1C(=O)N[C@@H](C(C)C)C(=O)N[C@@H](Cc2cccc(O)c2)C(=O)N2CCCC(N2)C(=O)O[C@H](/C(C)=C/C=C/C(=O)N(C)C)C/C=C/C=C/[C@H](O)[C@H](C)[C@H]1O (stereo not given in full) | > 100000 nM | > 287 | 128 min | > 100 µM | 349 nM | 62000 nM | 48 min | 630 nM | 24.7 min | – | – | – | –
12 | CC(=O)CC[C@H]1C(=O)N[C@@H](C(C)C)C(=O)N[C@@H](Cc2cccc(O)c2)C(=O)N2CCCC(N2)C(=O)O[C@H](/C(C)=C/C=C/C(=O)Nc2ccc(-c3ccccc3)cc2)C/C=C/C=C/[C@H](O)[C@H](C)[C@H]1O (stereo in doubt) | > 100000 nM | > 481 | > 240 min | 2 µM (≈ 1.86 µg/mL) | 208 nM | 1150 nM | 2.3 min | 520 nM | 1.3 min | – | – | – | –
13 | C/C=C/C[C@@H](C)[C@@H](O)[C@H]1C(=O)N[C@@H](CC)C(=O)N(C)[C@H](C)C(=O)N(CC)[C@@H](C(C)C)C(=O)N[C@@H](C(C)C)C(=O)N(C)[C@@H](CC(C)C)C(=O)N[C@@H](C)C(=O)N[C@H](C)C(=O)N(C)[C@@H](CC(C)C)C(=O)N(C)[C@@H](CC(C)C)C(=O)N(C)[C@@H](C(C)C)C(=O)N1C [ALISPORIVIR] | – | – | – | – | – | – | – | – | – | – | – | – | 840 nM
14 | CCN(CC)C(=O)/C=C/C=C(\C)[C@@H]1C/C=C/C=C/[C@H](O)[C@H](C)[C@@H](O)[C@@H](CCC(C)=O)C(=O)N[C@@H](C(C)C)C(=O)N[C@@H](Cc2cccc(O)c2)C(=O)N2CCCC(N2)C(=O)O1 (stereo not given in full) | > 100000 nM | > 490 | 94 min | > 100 µM | 204 nM | 1200 nM | 16.8 min | 350 nM | 8.4 min | – | – | – | –
15 | CC(=O)CC[C@H]1C(=O)N[C@@H](C(C)C)C(=O)N[C@@H](Cc2cccc(O)c2)C(=O)N2CCCC(N2)C(=O)O[C@H](/C(C)=C/C=C/C(=O)N(C)c2ccccn2)C/C=C/C=C/[C@H](O)[C@H](C)[C@H]1O (stereo not given in full) | > 100000 nM | > 50 | 150 min | 17 µM (≈ 14.8 µg/mL) | 2010 nM | 11500 nM | 19.1 min | 330 nM | 9.8 min | – | – | – | –
16 | CC(=O)CC[C@H]1C(=O)N[C@@H](C(C)C)C(=O)N[C@@H](Cc2cccc(O)c2)C(=O)N2CCCC(N2)C(=O)O[C@H](/C(C)=C/C=C/C(=O)N(CC(C)C)CC(C)C)C/C=C/C=C/[C@H](O)[C@H](C)[C@H]1O (stereo not given in full) | 2100 nM | 6.8 | 98 min | – | 309 nM | 1100 nM | 21.6 min | 390 nM | 2.5 min | – | – | – | –
